{
  "source": "patent US11510931B2",
  "about": "“Compositions and methods for treating ophthalmic conditions” (MEDICON PHARMACEUTICALS, INC., priority 2016, dated 2022)",
  "key": {"MMP-1 (collagenase I)": {"target": "T1, MMP-1 (collagenase I) (Homo sapiens, UniProt P03956)", "T1 sequence (P03956 100-469)": "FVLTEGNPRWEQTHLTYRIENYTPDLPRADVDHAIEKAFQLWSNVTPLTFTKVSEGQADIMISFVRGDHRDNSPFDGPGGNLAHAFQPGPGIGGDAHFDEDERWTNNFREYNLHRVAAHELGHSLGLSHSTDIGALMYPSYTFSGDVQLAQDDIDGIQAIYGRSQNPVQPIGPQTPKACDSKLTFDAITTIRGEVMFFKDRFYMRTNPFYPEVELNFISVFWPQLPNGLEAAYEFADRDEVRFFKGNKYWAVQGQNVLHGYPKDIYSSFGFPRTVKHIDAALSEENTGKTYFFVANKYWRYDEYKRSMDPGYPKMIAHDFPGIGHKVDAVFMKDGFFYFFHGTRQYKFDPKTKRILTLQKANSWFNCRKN", "assay": "In vitro collagenase activity assay with purified MMP-1", "format": "biochemical", "conditions": "purified MMP-1 (collagenase I)", "method": "In an in vitro assay with purified MMP-1 (collagenase I) as […] it was shown that PS inhibited collagenase activity with an IC50 of <100 nM. In cultured human conjunctiva cells, PS suppressed MMP-1 by 75%-86%. In the lacrimal glands of rabbits with DED treated with PS eye drops, PS suppressed MMP-9 levels by 27% compared to vehicle treated rabbits (2.20±0.24 vs. 1.66±0.20 ng/mg protein; p<0.05; mean±SEM)."}, "IL-8": {"test_system": "IL-8", "assay": "IL-8 levels in the ILG of rabbits with DED (ELISA)", "format": "in vivo, rabbit", "method": "Using this model, we compared the effect of PS to that of cyclosporine and lifitegrast. Rabbits were treated for 6 days with PS as above or cyclosporine 0.05% or lifitegrast 5% eye drops 3×/day. In addition to determining TUBT, osmolarity and STT, we measured the levels of IL-8 and IL-1β in the ILGs of the rabbits harvested at euthanasia. Both of these cytokines are significant mediators of inflammation in DED. As shown in the table below, PS had statistically significant effects on TBUT, tear osmolarity, IL-8 and IL-1β levels. […] Of note, lifitegrast suppressed STT below the levels of the vehicle group and this suppression was statistically significant, but in the opposite direction for a useful therapeutic effect.\nMoreover, for all three cytokines PS suppressed their unstimulated levels as well (62%, 84% and 4.7% reduction, respectively). In addition, PS suppressed the levels of IL-8 by 64% and IL-1β (not expressed by the cultured cells) by 61% in the ILG of rabbits treated with PS for 1 week compared to controls treated with vehicle (FIG. 8B). TGF-β was not detectable by the method in ILG homogenates. All these changes were statistically significant (p<0.001-0.04, except for the unstimulated TGF-β)."}, "JNK and Erk1/2": {"test_system": "JNK and Erk1/2", "assay": "MAPK activation by phosphorylation in human conjunctival cells (immunoblot)", "format": "cell-based", "conditions": "3.5 h, FIG. 6B", "method": "FIGS. 6A and 6B illustrate that PS suppresses the activation of NF-κB and MAPKs. In FIG. 6A, NF-κB activation was determined by EMSA in cultured human conjunctival cells stimulated with TNFα (top) and in the ILG of rabbits with Con A-induced DED and treated for one week with either vehicle or PS (bottom). In FIG. 6B, immunoblots detecting the activation of MAPKs by phosphorylation in cultured human conjunctival cells treated with PS at the indicated concentrations for 3.5 h. Loading control: β-actin.\nOur conjunctiva cells express only the JNK and Erk1/2 pathways."}, "eyes of rabbits": {"test_system": "eyes of rabbits", "assay": "Safety of topically applied PS in rabbits (toxicity, intraocular pressure, corneal melt, slit lamp)", "format": "in vivo, rabbit", "from_the_text": "The Safety of Topically Applied PS."}, "[1]": {"assay": "Biodistribution of PS in porcine eyes (ex vivo)", "format": "in vitro ADME, pig", "conditions": "porcine eye ex vivo, 2% PS nanoparticle solution", "from_the_text": "Biodistribution of PS in porcine eyes (ex vivo): Explanted pig eyes were exposed to PS nanoparticle solution (PS concentration was 2%) and treated as were the human eyes."}, "NF-κB [2]": {"test_system": "NF-κB", "assay": "NF-κB activation by EMSA in TNF-α-stimulated human conjunctival cells", "format": "cell-based", "conditions": "PS 5 h then TNF-α 10 ng/ml 1 h, FIG. 6A", "from_the_text": "The Mechanism of Action of PS in Dry Eye. Tissue culture, animal and human studies have established inflammation as the core mechanism of DED^8. To determine the mechanism of action of PS in DED the response to PS of several factors known to play an important role in the inflammation associated with DED was explored. They include NF-κB; the cytokines TGF-β, IL-1 β, IL-6 and IL-8; the collagenases MMP-1 and MMP-9; and PGE2. In these studies we used human conjunctival epithelial cells, the Wong-Kilbourne derivative of Chang conjunctival cells (clone 1 to 5c-41 American Type Culture Collection (Manassas, Va.) certified cell line, 20.2).\n(§1) Human conjunctival cells were treated with various concentrations of PS. Five hours later, TNF-α was added to the culture medium to a final concentration of 10 ng/ml and the status of NF-κB activation was determined by EMSA 1 h later. […] Similarly, after 1 week of treatment, PS suppressed NF-κB activation in the ILG of rabbits with DED compared to those treated with vehicle."}, "NF-κB [3]": {"test_system": "NF-κB", "assay": "NF-κB activation in the ILG of rabbits with DED", "format": "in vivo, rabbit", "conditions": "1 week of treatment, vs vehicle", "method": "as §1"}, "[4]": {"conditions": "rabbits, 2 weeks of daily PS 3.6% eye drops"}, "[5]": {"conditions": "weekly during a 1-month application of PS"}, "[6]": {"conditions": "exposure/incubation 1/15 min/min"}, "[7]": {"conditions": "exposure/incubation 1/60 min/min"}, "[8]": {"conditions": "exposure/incubation 10/15 min/min"}, "[9]": {"conditions": "exposure/incubation 10/60 min/min"}},
  "data": [
    {"smiles": "CCOP(=O)(OCC)OCCCCOC(=O)CC1=C(C)/C(=C/c2ccc([S+](C)[O-])cc2)c2ccc(F)cc21", "note": "(centres unmarked) [PS, phosphosulindac]", "values": [
      {"measurement": "IC50", "setting": "MMP-1 (collagenase I)", "result": "< 100", "unit": "nM"},
      {"measurement": "IL-8 in the ILG", "setting": "IL-8; Con A DED rabbits, 6 days, eye drops 3×/day, PS nanoparticles, cyclosporine 0.05%, lifitegrast 5%, mean ± SEM", "result": "4.9 ± 1.7", "unit": "pg/mg protein"},
      {"measurement": "suppression of IL-8 levels in the ILG", "setting": "IL-8; rabbits treated with PS for 1 week vs vehicle", "result": 64, "unit": "%"},
      {"measurement": "activation by phosphorylation of JNK and Erk1/2", "setting": "JNK and Erk1/2", "result": "profoundly suppressed"},
      {"measurement": "Intraocular pressure (Tonopen)", "setting": "eyes of rabbits; 1-month application of PS", "result": "remained normal"},
      {"measurement": "signs of uveitis", "setting": "eyes of rabbits; 1-month application of PS", "result": "No animal developed signs of uveitis"},
      {"measurement": "tolerability of ocular application", "setting": "eyes of rabbits; rabbits", "result": "very well tolerated"},
      {"measurement": "keratitis or corneal melting (ophthalmological examination)", "setting": "eyes of rabbits; rabbits treated for up to 3 weeks", "result": "no evidence of keratitis or corneal melting"},
      {"measurement": "intraocular pressure", "setting": "eyes of rabbits; [4]", "result": "no changes in intraocular pressure"},
      {"measurement": "topical or systemic toxicity", "setting": "eyes of rabbits; [4]", "result": "no evidence of topical or systemic toxicity"},
      {"measurement": "slit lamp examination: conjunctiva", "setting": "eyes of rabbits; [5]", "result": "no evidence of follicular/papillary response or injection of the conjunctiva"},
      {"measurement": "slit lamp examination: corneal abnormalities (staining defects, vascularization, opacification, epithelial defects, stromal thinning, melts)", "setting": "eyes of rabbits; [5]", "result": "nor were there signs of corneal abnormalities"},
      {"measurement": "PS in Cornea", "setting": "[1]; [6]", "result": 51.5, "unit": "µM"},
      {"measurement": "PS in Lens", "setting": "[1]; [6]", "result": 9.5, "unit": "µM"},
      {"measurement": "PS in Sclera", "setting": "[1]; [6]", "result": 86.6, "unit": "µM"},
      {"measurement": "PS in Cornea", "setting": "[1]; [7]", "result": 99.8, "unit": "µM"},
      {"measurement": "PS in Lens", "setting": "[1]; [7]", "result": 4.8, "unit": "µM"},
      {"measurement": "PS in Sclera", "setting": "[1]; [7]", "result": 123.9, "unit": "µM"},
      {"measurement": "PS in Cornea", "setting": "[1]; [8]", "result": 97.1, "unit": "µM"},
      {"measurement": "PS in Lens", "setting": "[1]; [8]", "result": 1.9, "unit": "µM"},
      {"measurement": "PS in Sclera", "setting": "[1]; [8]", "result": 89.9, "unit": "µM"},
      {"measurement": "PS in Cornea", "setting": "[1]; [9]", "result": 170.6, "unit": "µM"},
      {"measurement": "PS in Lens", "setting": "[1]; [9]", "result": 2.1, "unit": "µM"},
      {"measurement": "PS in Sclera", "setting": "[1]; [9]", "result": 47.9, "unit": "µM"},
      {"measurement": "activation of NF-κB (EMSA)", "setting": "NF-κB [2]", "result": "significantly suppressed"},
      {"measurement": "NF-κB activation in the ILG", "setting": "NF-κB [3]", "result": "suppressed"}
    ]}
  ]
}
